Source: patent US11278024B2 (priority 2017, dated 2022)
Marks after values point to notes of the source that are not given here.

Key:
Assay type in all cases: in vivo
[1] = test system: root-knot nematodes (Meloidogyne spp.); test: Petri dish nematocidal activity on hatched root-knot nematodes; details: for Number of killed root-knot nematodes: 15 nematodes; for Nematocidal efficiency (%): within 3 days; for Nematocidal efficiency on root-knot nematodes (%): geraniol concentration 685 ppm
Protocol: The nematodes used in the experiments were Meloidogyne spp. (hatched from eggs from infected roots of melons from farms in Seongju-gun, Gyeongsangbuk-do, Korea), and were propagated using tomato plants from Ecowin Co. Ltd. and used for experiments.
The tomato roots infected with root-knot nematodes were washed with running water and were then cut to a size of about 1 cm, after which 50 g of the cut roots was placed in a 500 ml round-bottom flask containing 200 ml of 0.5% sodium hypochloride (NaOCl), stopped with a rubber stopper, and shaken vigorously for 3 min to sterilize the roots and at the same time burst the egg bag. Thereafter, the solution was passed through a sieve in which 200 mesh was superimposed on 500 mesh, and washed with distilled water, so the eggs of the root-knot nematodes from which the NaOCl solution was removed were recovered.
Next, the eggs of the root-knot nematodes thus recovered were surface-sterilized with 0.5% NaOCl for 10 min, washed thoroughly with sterile distilled water, placed in a phosphate buffer (1%) containing sterilized normal saline, and hatched in an incubator at 25° C.
Thereafter, […], 2 to 3 ml thereof was poured into a Petri dish, after which 15 hatched root-knot nematodes were placed in the Petri dish, and nematocidal activity was measured and the results thereof are shown in Table 1 below.
Nematocidal activity on root-knot nematodes (treatment concentration: […]) was evaluated in the same manner as in Example 1, with the exception that Ostericum koreanum, clove, Myristica fragrans, Acorus gramineus, Kaempferia galanga and Amomum cardamomum L. extracts were used, in lieu of the naturally derived materials. Here, Ostericum koreanum, clove, Myristica fragrans, Acorus gramineus, Kaempferia galanga and Amomum cardamomum L. were purchased from a medicinal plant retailer located in the Daegu area and then extracted using ethanol according to a typical method. Specifically, each medicine was finely crushed, mixed with ethanol at a ratio of 1:5, and extracted at 180 rpm at room temperature for 48 hr, after which as much ethanol as possible was concentrated using a concentrator.
Nematocidal activity on root-knot nematodes was evaluated in the same manner as in Example 1, with the exception that a neem extract was used in lieu of the naturally derived materials.

[2] = test system: cyst nematodes; test: Petri dish nematocidal activity on cyst nematodes; details: geraniol 2,000 ppm; for Number of killed nematodes: 15 cyst nematodes
Excerpt: (§1) Petri dishes, followed by measurement of nematocidal activity.

[3] = test system: tomato seedlings; test: Phytotoxicity on tomato seedlings in pots, drenching treatment, observed with the naked eye; details: 50 ml drench, 1 week after treatment
Protocol: Sterilized soil was uniformly mixed, 300 g thereof was then placed in each pot, and tomato seedlings not infected with root-knot nematodes were transplanted thereto.
Sterilized soil was uniformly mixed, 300 g thereof was then placed in each pot, and tomato seedlings not infected with root-knot nematodes were transplanted thereto. The sample prepared in Example 4 was diluted to a standard amount or a multiple thereof for each treatment group, and then 50 ml thereof was used for drenching treatment.

[4] = test system: spiral nematodes; test: Petri dish nematocidal activity on spiral nematodes; details: geraniol 2,000 ppm; for Number of killed nematodes: 15 spiral nematodes
Excerpt: as §1

[5] = test system: root-lesion nematodes; test: Petri dish nematocidal activity on root-lesion nematodes; details: geraniol 2,000 ppm; for Number of killed nematodes: 15 root-lesion nematodes
Excerpt: as §1

C/C=C(\C)C(=O)O[C@H]1C[C@@H](OC(C)=O)[C@@]2(C(=O)OC)CO[C@H]3[C@@H](O)[C@@](C)([C@]45O[C@@]4(C)[C@H]4C[C@@H]5O[C@@H]5OC=C[C@@]54O)[C@H]4[C@]1(CO[C@]4(O)C(=O)OC)[C@@H]32 [Azadirachtin, azadirachtin, reference compound]
Number of killed root-knot nematodes ([1]; 2,000 ppm, 1 day): 7
Number of killed root-knot nematodes ([1]; 2,000 ppm, 2 days): 8
Number of killed root-knot nematodes ([1]; 2,000 ppm, 3 days): 10
Nematocidal efficiency (%) ([1]; 2,000 ppm): 66.7%

CC(C)=CCC/C(C)=C/CO [Geraniol, geraniol]
Number of killed nematodes ([2]; 1 day): 8
Number of killed nematodes ([2]; 2 days): 11
Number of killed nematodes ([2]; 3 days): 12
Nematocidal efficiency ([2]; within 3 days): 80%
Extent of phytotoxicity (0-5) ([3]; 100 ppm): 0
Phytotoxicity symptom ([3]; 100 ppm): No
Extent of phytotoxicity (0-5) ([3]; 200 ppm): 0
Phytotoxicity symptom ([3]; 200 ppm): No
Extent of phytotoxicity (0-5) ([3]; 330 ppm): 0
Phytotoxicity symptom ([3]; 330 ppm): No
Extent of phytotoxicity (0-5) ([3]; 500 ppm): 0
Phytotoxicity symptom ([3]; 500 ppm): No
Extent of phytotoxicity (0-5) ([3]; 1,000 ppm): 0
Phytotoxicity symptom ([3]; 1,000 ppm): No
Extent of phytotoxicity (0-5) ([3]; 2,000 ppm): 0
Phytotoxicity symptom ([3]; 2,000 ppm): No
Extent of phytotoxicity (0-5) ([3]; 3,000 ppm): 0
Phytotoxicity symptom ([3]; 3,000 ppm): No
Extent of phytotoxicity (0-5) ([3]; 4,000 ppm): 5
Phytotoxicity symptom ([3]; 4,000 ppm): Withered
Extent of phytotoxicity (0-5) ([3]; 5,000 ppm): 5
Phytotoxicity symptom ([3]; 5,000 ppm): Withered
Extent of phytotoxicity (0-5) ([3]; 10,000 ppm): 5
Phytotoxicity symptom ([3]; 10,000 ppm): Withered
Extent of phytotoxicity (0-5) ([3]; 20,000 ppm): 5
Phytotoxicity symptom ([3]; 20,000 ppm): Withered
Number of killed nematodes ([4]; 1 day): 7
Number of killed nematodes ([4]; 2 days): 9
Number of killed nematodes ([4]; 3 days): 13
Nematocidal efficiency ([4]; within 3 days): 86.7%
Number of killed nematodes ([5]; 1 day): 14^a
Number of killed nematodes ([5]; 2 days): 15
Nematocidal efficiency ([5]; within 3 days): 100%
Number of killed root-knot nematodes ([1]; 100 ppm, 1 day): 5
Number of killed root-knot nematodes ([1]; 100 ppm, 2 days): 7
Number of killed root-knot nematodes ([1]; 100 ppm, 3 days): 7
Nematocidal efficiency (%) ([1]; 100 ppm): 46.7%
Number of killed root-knot nematodes ([1]; 200 ppm, 1 day): 5
Number of killed root-knot nematodes ([1]; 200 ppm, 2 days): 7
Number of killed root-knot nematodes ([1]; 200 ppm, 3 days): 13
Nematocidal efficiency (%) ([1]; 200 ppm): 86.7%
Number of killed root-knot nematodes ([1]; 333 ppm, 1 day): 5
Number of killed root-knot nematodes ([1]; 333 ppm, 2 days): 6
Number of killed root-knot nematodes ([1]; 333 ppm, 3 days): 15
Nematocidal efficiency (%) ([1]; 333 ppm): 100%
Number of killed root-knot nematodes ([1]; 500 ppm, 1 day): 5
Number of killed root-knot nematodes ([1]; 500 ppm, 2 days): 10
Number of killed root-knot nematodes ([1]; 500 ppm, 3 days): 15
Nematocidal efficiency (%) ([1]; 500 ppm): 100%
Number of killed root-knot nematodes ([1]; 1,000 ppm, 1 day): 10
Number of killed root-knot nematodes ([1]; 1,000 ppm, 2 days): 15
Nematocidal efficiency (%) ([1]; 1,000 ppm): 100%
Nematocidal efficiency (%) ([1]; 2,000 ppm): 100%
Number of killed root-knot nematodes ([1]; 3,000 ppm, 1 day): 15
Nematocidal efficiency (%) ([1]; 3,000 ppm): 100%
Number of killed root-knot nematodes ([1]; 10,000 ppm, 1 day): 15^a
Nematocidal efficiency (%) ([1]; 10,000 ppm): 100%
Nematocidal efficiency on root-knot nematodes (%) ([1]; 1 day): 72.5%
Nematocidal efficiency on root-knot nematodes (%) ([1]; 2 days): 93.6%
Nematocidal efficiency on root-knot nematodes (%) ([1]; 3 days): 100.0%
Nematocidal effect of geraniol alone relative to palmarosa oil containing the same amount of geraniol ([1]; same geraniol content (685 ppm)): about 4.2 times

O=C1CCC[C@@H]2[C@H]3CCC[N+]4([O-])CCC[C@@H](CN12)[C@@H]34 (stereo partly shown) [Oxymatrine, oxymatrine, reference compound]
Number of killed root-knot nematodes ([1]; 2,000 ppm, 1 day): 7
Number of killed root-knot nematodes ([1]; 2,000 ppm, 2 days): 9
Number of killed root-knot nematodes ([1]; 2,000 ppm, 3 days): 10
Nematocidal efficiency (%) ([1]; 2,000 ppm): 66.7%

pyrethrin [reference compound]
Number of killed root-knot nematodes ([1]; 2,000 ppm, 1 day): 5
Number of killed root-knot nematodes ([1]; 2,000 ppm, 2 days): 6
Number of killed root-knot nematodes ([1]; 2,000 ppm, 3 days): 11
Nematocidal efficiency (%) ([1]; 2,000 ppm): 73.3%
